Source: patent US10632064B2, “Topical regional neuro affective therapy with cannabinoid combination products” (Afgin Pharma, LLC, priority 2015, dated 2020)

What was measured:
[1] = tested on: human patient having a remote head injury, s/p 4 craniotomies and intractable seizures; assay: Example 7: topical cannabidiol 40 mg at the BONATH, intractable seizures, EEG; type: in vivo; conditions: 25 mg milnacipran topical nuchal after cannabidiol 40 mg
Experimental: The efficacy of a topical cannabidiol formulation was studied in a human patient having a remote head injury, s/p 4 craniotomies and intractable seizures. The patient was treated with cannabidiol 40 mg applied to the BONATH in a topical formulation. There was attenuation of associated focal EEG abnormalities.

[2] = tested on: acute paranoid schizophrenia; conditions: after 2 weeks; cited from earlier work

CCN(CC)C(=O)C1(c2ccccc2)CC1CN (centres unmarked) [milnacipran]
EEG after further topical nuchal treatment [1]: further attenuated

CCN1CCCC1CNC(=O)c1cc(S(=O)(=O)CC)c(N)cc1OC (centres unmarked) [amisulpride]
psychotic symptoms [2]: significant decrease in psychotic symptoms
